Earlier results as cited in patent publication US20070042451A1, “Glycine decarboxylase complex as a herbicidal target” (BASF Aktiengesellschaft, priority 2003, published 2007).

System: glycine decarboxylase complex
Settings: Navarre and Wolpert 1995

## victorine
  in vitro inhibition of the GDC activity: inhibition of the GDC activity
